Reference: US20090111820A1, “FUSED PYRROLIDINE 1,2,4-TRIAZOLE DERIVATIVES AS MODULATORS OF MGLUR5” (priority 2007, published 2009)

Assays:
[1] = target: T1, human mGluR5d (Homo sapiens, UniProt P41594); assay: FLIPR assay, mGluR5 antagonism (intracellular calcium mobilization); assay type: cell-based; settings: cells expressing human mGluR5d; fluo-3 calcium signal; read-out: FLIPR hmGluR5d
T1 construct: expressed in transfected cells; It is kept under hygromycin B and Zeocin selection; The separate IP3 assay names GHEK cells
T1 sequence (P41594 21-942 isoform P41594-3 limits assumed): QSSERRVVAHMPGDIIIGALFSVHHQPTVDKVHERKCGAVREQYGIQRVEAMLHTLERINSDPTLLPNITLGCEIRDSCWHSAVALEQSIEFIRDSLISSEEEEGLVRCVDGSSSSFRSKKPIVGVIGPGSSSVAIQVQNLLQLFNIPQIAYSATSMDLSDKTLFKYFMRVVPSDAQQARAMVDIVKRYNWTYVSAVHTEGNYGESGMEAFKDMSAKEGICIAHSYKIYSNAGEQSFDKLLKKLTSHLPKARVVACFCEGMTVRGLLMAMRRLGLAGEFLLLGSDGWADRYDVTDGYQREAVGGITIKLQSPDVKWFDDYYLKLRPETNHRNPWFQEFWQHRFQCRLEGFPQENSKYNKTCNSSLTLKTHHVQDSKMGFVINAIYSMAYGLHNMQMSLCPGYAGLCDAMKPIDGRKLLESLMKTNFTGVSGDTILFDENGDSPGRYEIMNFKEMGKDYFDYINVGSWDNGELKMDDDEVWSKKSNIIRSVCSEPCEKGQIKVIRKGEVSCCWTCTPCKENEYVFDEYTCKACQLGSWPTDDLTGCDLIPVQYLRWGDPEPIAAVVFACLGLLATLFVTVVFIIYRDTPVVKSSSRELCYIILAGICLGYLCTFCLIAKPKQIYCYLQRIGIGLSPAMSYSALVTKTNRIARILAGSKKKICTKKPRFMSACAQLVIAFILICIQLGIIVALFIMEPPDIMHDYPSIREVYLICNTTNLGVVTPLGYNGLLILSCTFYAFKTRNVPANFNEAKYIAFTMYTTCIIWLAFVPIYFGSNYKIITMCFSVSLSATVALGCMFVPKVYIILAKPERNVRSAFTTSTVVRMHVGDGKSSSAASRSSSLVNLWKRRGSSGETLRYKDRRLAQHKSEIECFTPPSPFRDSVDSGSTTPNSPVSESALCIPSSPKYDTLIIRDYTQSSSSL
Source text: Functional Assessment of mGluR5 Antagonism in Cell Lines Expressing mGluR5D
The properties of the compounds of the invention can be analyzed using standard assays for pharmacological activity. Examples of glutamate receptor assays are well known in the art as described in for example Aramori et al., Neuron 8:757 (1992), Tanabe et al., Neuron 8:169 (1992), Miller et al., J. Neuroscience 15: 6103 (1995), Balazs, et al., J. Neurochemistry 69:151 (1997). The methodology described in these publications is incorporated herein by reference. Conveniently, the compounds of the invention can be studied by means of an assay (FLIPR) that measures the mobilization of intracellular calcium, [Ca^2+], in cells expressing mGluR5 or another assay (IP3) that measures inositol phosphate turnover.
Cells expressing human mGluR5d as described in WO97/05252 cultured in a mixture of high glucose DMEM with Glutamax (31966-021) (500 mL), 10% dialyzed fetal bovine serum (Hyclone #SH30079.03) (56 mL), 200 μg/mL Hygromycin B (Invitrogen 45-0430, 50 mg/mL)(2.2 mL), 200 μg/mL Zeocin (Invitrogen #R250-01; 100 mg/mL)(1.1 mL) are seeded at a density of 100,000 cells per well on collagen coated clear bottom 96-well plates with black sides and cells were allowed to adhere over night before experiments. All assays are done in a buffer containing 146 mM NaCl, 5 mM KCl, 1 mM MgCl2, 1 mM CaCl2, 20 mM HEPES, 1 mg/mL glucose and 1 mg/mL BSA Fraction IV (pH 7.4). Cell cultures in the 96-well plates are loaded for 60 minutes in the above mentioned buffer containing 6 μM of the acetoxymethyl ester form of the fluorescent calcium indicator fluo-3 (Molecular Probes, Eugene, Oreg.) in 0.025% pluronic acid (a proprietary, non-ionic surfactant polyol -CAS Number 9003-11-6). Following the loading period the fluo-3buffer is removed and replaced with fresh assay buffer. FLIPR experiments are done using a laser setting of 0.700 W and a 0.4 second CCD camera shutter speed with excitation and emission wavelengths of 488 nm and 562 nm, respectively. Each experiment is initiated with 160 μl of buffer present in each well of the cell plate. A 40 μl addition from the antagonist plate was followed by a 50 μL addition from the agonist plate. A 30 minutes, in dark at 25° C., interval separates the antagonist and agonist additions. The fluorescence signal is sampled 50 times at 1-second intervals followed by 3 samples at 5-second intervals immediately after each of the two additions. Responses are measured as the difference between the peak heights of the response to agonist, less the background fluorescence within the sample period. IC50 determinations are made using a linear least squares fitting program.

[2] = Determination of brain to plasma ratio in rat; assay type: in vivo; settings: brain and plasma, female Sprague Dawley rats, read-out: Brain/Plasma Ratio of compound in Rat
Experimental: Determination of Brain to Plasma Ratio in Rat
Brain to plasma ratios are estimated in female Sprague Dawley rats. The compound is dissolved in water or another appropriate vehicle. For determination of brain to plasma ratio the compound is administrated as a subcutaneous, or an intravenous bolus injection, or an intravenous infusion, or an oral administration. At a predetermined time point after the administration a blood sample is taken with cardiac puncture. The rat is terminated by cutting the heart open, and the brain is immediately retained. The blood samples are collected in heparinized tubes and centrifuged within 30 minutes, in order to separate the plasma from the blood cells. The plasma is transferred to 96-well plates and stored at −20° C. until analysis. The brains are divided in half, and each half is placed in a pre-tarred tube and stored at −20° C. until analysis. Prior to the analysis, the brain samples are thawed and 3 mL/g brain tissue of distilled water is added to the tubes. The brain samples are sonicated in an ice bath until the samples are homogenized. Both brain and plasma samples are precipitated with acetonitrile. After centrifugation, the supernatant is diluted with 0.2% formic acid. Analysis is performed on a short reversed-phase HPLC column with rapid gradient elution and MSMS detection using a triple quadrupole instrument with electrospray ionisation and Selected Reaction Monitoring (SRM) acquisition. Liquid-liquid extraction may be used as an alternative sample clean-up. The samples are extracted, by shaking, to an organic solvent after addition of a suitable buffer. An aliquot of the organic layer is transferred to a new vial and evaporated to dryness under a stream of nitrogen. After reconstitution of the residuals the samples are ready for injection onto the HPLC column.

| Compound | IC50 [1] [nM] | Kp [2] |
| --- | --- | --- |
| Cn1c(-c2ccn(C)c(=O)c2)nnc1N1[C@@H](c2cc(-c3cccc(Cl)c3)on2)C[C@H]2C[C@H]21 [Example 13.4, 4-(5-{(1R,3R,5R)-3-[5-(3-Chlorophenyl)isoxazol-3-yl]-2-azabicyclo[3.1.0]hex-2-yl}-4-methyl-4H-1,2,4-triazol-3-yl)-1-methylpyridin-2(1H)-one] | 39 | < 0.01 |
| Cc1cccc(-c2cc([C@H]3C[C@H]4C[C@H]4N3c3nnc(-c4ccn(C)c(=O)c4)n3C)no2)c1 [Example 13.1, 1-Methyl-4-(4-methyl-5-{(1R,3R,5R)-3-[5-(3-methylphenyl)isoxazol-3-yl]-2-azabicyclo[3.1.0]hex-2-yl}-4H-1,2,4-triazol-3-yl)pyridin-2(1H)-one] | 73 | 0.01 |
| Cc1cccc(-c2cc([C@H]3C[C@H]4C[C@H]4N3c3nnc(-c4cn[nH]c(=O)c4)n3C)no2)c1 [Example 13.3, 5-(4-Methyl-5-{(1R,3R,5R)-3-[5-(3-methylphenyl)isoxazol-3-yl]-2-azabicyclo[3.1.0]hex-2-yl}-4H-1,2,4-triazol-3-yl)pyrimidin-3(2H)-one] | 71 |  |
| Cn1c(-c2ccc(C(N)=O)cc2)nnc1N1[C@@H](c2cc(-c3cccc(Cl)c3)on2)C[C@H]2C[C@H]21 [Example 13.5, 4-(5-{(1R,3R,5R)-3-[5-(3-Chlorophenyl)isoxazol-3-yl]-2-azabicyclo[3.1.0]hex-2-yl}-4-methyl-4H-1,2,4-triazol-3-yl)benzamide] | 14 |  |
| Cc1cccc(-c2cc([C@H]3C[C@H]4C[C@H]4N3c3nnc(-c4cc[nH]c(=O)n4)n3C)no2)c1 [Example 13.2, 4-(4-Methyl-5-{(1R,3R,5R)-3-[5-(3-methylphenyl)isoxazol-3-yl]-2-azabicyclo[3.1.0]hex-2-yl}-4H-1,2,4-triazol-3-yl)pyrimidin-2(1H)-one] | 131 |  |

The remaining lines, values ahead:

| IC50 [1] [nM] | Kp [2] | Compound |
| --- | --- | --- |
| 32 | < 0.01 | Cn1c(-c2cn[nH]c(=O)c2)nnc1N1[C@@H](c2cc(-c3cccc(Cl)c3)on2)C[C@H]2C[C@H]21 [Example 13.6, 5-(5-{(1R,3R,5R)-3-[5-(3-Chlorophenyl)isoxazol-3-yl]-2-azabicyclo[3.1.0]hex-2-yl}-4-methyl-4H-1,2,4-triazol-3-yl)pyridazin-3(2H)-one] |
| 46 |  | Cn1c(-c2cn[nH]c(=O)c2)nnc1N1C[C@H]2C[C@H]2[C@@H]1c1cc(-c2cccc(Cl)c2)on1 [Example 13.9, 5-(5-{(1R,2R,5S)-2-[5-(3-Chlorophenyl)isoxazol-3-yl]-3-azabicyclo[3.1.0]hex-3-yl}-4-methyl-4H-1,2,4-triazol-3-yl)pyridazin-3(2H)-one] |
| 51 |  | Cn1c(-c2ccn(C)c(=O)c2)nnc1N1C[C@H]2C[C@H]2[C@@H]1c1cc(-c2cccc(Cl)c2)on1 [Example 13.8, 4-(5-{(1R,2R,5S)-2-[5-(3-Chlorophenyl)isoxazol-3-yl]-3-azabicyclo[3.1.0]hex-3-yl}-4-methyl-4H-1,2,4-triazol-3-yl)-1-methylpyridin-2(1H)-one] |
